Data: PubChem BioAssay AID328 (DTP/NCI, 2004)
“And” between values parts separate entries of the source, which are not always exact repeats. Equal entries are not always repeated. Toxic doses and inconclusive results are not listed. How the source made its calls: active means survival T/C of 150% or more; inactive means T/C below 125% in these data.

System: BDF1 mice, P388 leukemia ip, median survival T/C
Assay: NCI In Vivo Anticancer Drug Screen. Data for tumor model P388 Leukemia (intraperitoneal) in B6D2F1 (BDF1) mice
Conditions: endpoint: median survival time, higher = longer survival
Procedure, shortened: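 Read-out is survival of treated animals expressed relative to the vehicle group, as a T/C ratio.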

[1] = dose: 100.0 mg/kg/injection, schedule: Q04DX003 (ip), vehicle: Klucel (hydroxypropylcellulose) (HPC)
[2] = dose: 200.0 mg/kg/injection, schedule: Q04DX003 (ip), vehicle: Klucel (hydroxypropylcellulose) (HPC)
[3] = dose: 400.0 mg/kg/injection, schedule: Q04DX003 (ip), vehicle: Klucel (hydroxypropylcellulose) (HPC)

Measured: T/C

CC(C)(C)OC(=O)NN=C1CCC(C(C)(C)C)CC1 (configuration not stated)
inactive: dose: 83.75 mg/kg/injection, schedule: Q01DX001 (ip), vehicle: Klucel (hydroxypropylcellulose) (HPC) 95 % of control | dose: 100.0 mg/kg/injection, schedule: Q01DX009 (ip), vehicle: saline with Tween-80 109 % of control | dose: 150.0 mg/kg/injection, schedule: Q04DX003 (ip), vehicle: Klucel (hydroxypropylcellulose) (HPC) 100 % of control | dose: 167.5 mg/kg/injection, schedule: Q01DX001 (ip), vehicle: Klucel (hydroxypropylcellulose) (HPC) 100 % of control | dose: 225.0 mg/kg/injection, schedule: Q04DX003 (ip), vehicle: Klucel (hydroxypropylcellulose) (HPC) 100 % of control | dose: 335.0 mg/kg/injection, schedule: Q01DX001 (ip), vehicle: Klucel (hydroxypropylcellulose) (HPC) 95 % of control | dose: 335.0 mg/kg/injection, schedule: Q04DX003 (ip), vehicle: Klucel (hydroxypropylcellulose) (HPC) 90 % of control

COc1c(Br)cc(Br)cc1Br
inactive: [1] 108 % of control | [2] 100 % of control | [3] 100 % of control

CC(C)OC(=S)SSC(=S)OC(C)C
inactive: dose: 100.0 mg/kg/injection, schedule: Q01DX001 (ip), vehicle: Klucel (hydroxypropylcellulose) (HPC) 118 % of control | dose: 100.0 mg/kg/injection, schedule: Q01DX009 (ip), vehicle: Klucel (hydroxypropylcellulose) (HPC) 104 % of control | [1] 104 % of control | dose: 200.0 mg/kg/injection, schedule: Q01DX001 (ip), vehicle: Klucel (hydroxypropylcellulose) (HPC) 109 % of control | dose: 200.0 mg/kg/injection, schedule: Q01DX009 (ip), vehicle: Klucel (hydroxypropylcellulose) (HPC) 109 % of control | [2] 118 % of control | dose: 400.0 mg/kg/injection, schedule: Q01DX001 (ip), vehicle: Klucel (hydroxypropylcellulose) (HPC) 104 % of control | [3] 118 % of control

C=C1C(=O)OC2C1C(OC(=O)/C(C)=C/C)CC(O)(CCl)C1C(OC(C)=O)C=C(C)C21O (configuration not stated)
active: dose: 100.0 mg/kg/injection, schedule: Q01DX010 (ip), vehicle: saline 155 % of control
inactive: dose: 5.0 mg/kg/injection, schedule: Q01DX010 (ip), vehicle: carboxymethylcellulose (CMC) 100 % of control | dose: 10.0 mg/kg/injection, schedule: Q01DX010 (ip), vehicle: carboxymethylcellulose (CMC) 100 % of control | dose: 20.0 mg/kg/injection, schedule: Q01DX010 (ip), vehicle: carboxymethylcellulose (CMC) 100 % of control | dose: 25.0 mg/kg/injection, schedule: Q01DX010 (ip), vehicle: saline 116 % of control | dose: 50.0 mg/kg/injection, schedule: Q01DX010 (ip), vehicle: saline 100 % of control

CCOCCN1C=C/C(=C/C=C/c2cc[n+](CCOCC)c3ccccc23)c2ccccc21
inactive: dose: 0.22 mg/kg/injection, schedule: Q01DX009 (ip), vehicle: Klucel (hydroxypropylcellulose) (HPC) 100 % of control | dose: 0.45 mg/kg/injection, schedule: Q01DX009 (ip), vehicle: Klucel (hydroxypropylcellulose) (HPC) 100 % of control | dose: 0.9 mg/kg/injection, schedule: Q01DX009 (ip), vehicle: Klucel (hydroxypropylcellulose) (HPC) 105 % of control

CCSc1ncc2cnccn12
inactive: dose: 0.37 mg/kg/injection, schedule: Q01DX009 (ip), vehicle: water 108 % of control | dose: 0.75 mg/kg/injection, schedule: Q01DX009 (ip), vehicle: water 111 % of control and 112 % of control | dose: 1.0 mg/kg/injection, schedule: Q01DX009 (ip), vehicle: water 102 % of control | dose: 1.5 mg/kg/injection, schedule: Q01DX009 (ip), vehicle: water 112 % of control and 117 % of control and 120 % of control | dose: 2.0 mg/kg/injection, schedule: Q01DX009 (ip), vehicle: water 94 % of control and 105 % of control | dose: 3.12 mg/kg/injection, schedule: Q04DX003 (ip), vehicle: water 100 % of control | dose: 4.0 mg/kg/injection, schedule: Q01DX009 (ip), vehicle: water 94 % of control and 100 % of control | dose: 5.0 mg/kg/injection, schedule: Q01DX009 (ip), vehicle: water 91 % of control | dose: 6.0 mg/kg/injection, schedule: Q01DX009 (ip), vehicle: water 88 % of control and 104 % of control | dose: 6.25 mg/kg/injection, schedule: Q04DX003 (ip), vehicle: water 100 % of control | dose: 12.5 mg/kg/injection, schedule: Q04DX003 (ip), vehicle: water 102 % of control | dose: 16.0 mg/kg/injection, schedule: Q01DX009 (ip), vehicle: water 89 % of control

O=c1c(O)c(-c2ccc(O)c(O)c2)oc2cc(O)cc(O)c12
inactive: dose: 15.0 mg/kg/injection, schedule: Q01DX009 (ip), vehicle: saline 118 % of control | dose: 25.0 mg/kg/injection, schedule: Q01DX009 (ip), vehicle: saline 108 % of control | dose: 30.0 mg/kg/injection, schedule: Q01DX009 (ip), vehicle: saline 109 % of control | dose: 50.0 mg/kg/injection, schedule: Q01DX009 (ip), vehicle: saline 97 % of control and 112 % of control | dose: 100.0 mg/kg/injection, schedule: Q01DX009 (ip), vehicle: saline 102 % of control and 117 % of control | dose: 125.0 mg/kg/injection, schedule: Q01DX009 (ip), vehicle: saline 118 % of control | dose: 200.0 mg/kg/injection, schedule: Q01DX009 (ip), vehicle: saline 110 % of control | dose: 300.0 mg/kg/injection, schedule: Q01DX009 (ip), vehicle: saline 97 % of control
